Measurements: patent publication US7348402B2, “Antimicrobial peptide, its analogs and antimicrobial composition comprising them” (priority 2002, dated 2008)
No end group written: not given here.

What was measured:
Format in all cases: cell-based
[1] = tested on: Escherichia coli (ATCC 27325); conditions: ATCC 27325, 12 h
Text: (§1) The microorganisms used in the present invention include Gram-positive bacteria such as Bacillus subtilis (ATCC 62037), Staphylococcus aureus (ATCC 15752) and Streptococcus mutans (ATCC 25175), Gram-negative bacteria such as Escherichia coli (ATCC 27325), Salmonella enteritidis (ATCC 15277) and Pseudomonas putida (ATCC 17426) and fungi such as Candida albicans (ATCC 10231), Saccharomyces cerevisiae (ATCC 44774) and Cryptococcus neoformans (ATCC 34881), obtained from American Type Culture Collection (ATCC).
(§2) The antimicrobial activity of the peptides prepared in Example 1 was determined against microorganisms by 96-well microdilution minimal inhibitory concentration assay. After overnight culturing the bacteria and fungi in trypticase soy broth (TSB) and Saboraud (SAB) at 37° C. and 30° C., respectively, they were inoculated in new media and cultured for 2 hours to exponential growth phase. After diluting the microorganisms to 10^5 per 1 ml, 190 μl was inoculated in each 96-well plate, and 10 μl of serially diluted peptides were added in each well.

[2] = tested on: Salmonella enteritidis (ATCC 15277); conditions: ATCC 15277, 12 h
Text: as §1, §2

[3] = tested on: Candida albicans (ATCC 10231); conditions: ATCC 10231, 12 h
Text: as §1, §2

[4] = tested on: Bacillus subtilis (ATCC 62037); conditions: ATCC 62037, 12 h
Text: as §1, §2

[5] = tested on: Cryptococcus neoformans (ATCC 34881); conditions: ATCC 34881, 12 h
Text: as §1, §2

[6] = tested on: Staphylococcus aureus (ATCC 15752); conditions: ATCC 15752, 12 h
Text: as §1, §2

[7] = tested on: Pseudomonas putida (ATCC 17426); conditions: ATCC 17426, 12 h
Text: as §1, §2

[8] = tested on: Streptococcus mutans (ATCC 25175); conditions: ATCC 25175, 12 h
Text: as §1, §2

[9] = tested on: Saccharomyces cerevisiae (ATCC 44774); conditions: ATCC 44774, 12 h
Text: as §1, §2

Sequence	Minimum Inhibitory Concentration [1]	Minimum Inhibitory Concentration [2]	Minimum Inhibitory Concentration [3]	Minimum Inhibitory Concentration [4]	Minimum Inhibitory Concentration [5]	Minimum Inhibitory Concentration [6]	Minimum Inhibitory Concentration [7]	Minimum Inhibitory Concentration [8]	Minimum Inhibitory Concentration [9]
KVLRNWPIGKVLRKVLRKVLR [compound 31]	1 µg/mL	1 µg/mL	1 µg/mL	1 µg/mL	1 µg/mL	1 µg/mL	1 µg/mL	2 µg/mL	2 µg/mL
KVVKKVVKKVVKNWPIGKVVK [compound 53]	1 µg/mL	1 µg/mL	2 µg/mL	1 µg/mL	1 µg/mL	1 µg/mL	1 µg/mL	1 µg/mL	1 µg/mL
KLLRNWPIGKLLRKLLRKLLR [compound 29]	1 µg/mL	1 µg/mL	1 µg/mL	1 µg/mL	1 µg/mL	1 µg/mL	1 µg/mL	2 µg/mL	2 µg/mL
KLVRKLVRKLVRQWPIGKLVR [compound 50]	1 µg/mL	2 µg/mL	1 µg/mL	1 µg/mL	1 µg/mL	1 µg/mL	1 µg/mL	1 µg/mL	2 µg/mL
RVLKQWPIGRVLKRVLKRVLK [compound 13]	1 µg/mL	1 µg/mL	1 µg/mL	2 µg/mL	1 µg/mL	1 µg/mL	1 µg/mL	2 µg/mL	2 µg/mL
KLVKQWPIGKLVKKLVKKLVK [compound 8]	1 µg/mL	1 µg/mL	2 µg/mL	1 µg/mL	1 µg/mL	1 µg/mL	1 µg/mL	2 µg/mL	2 µg/mL
RLLKRLLKRLLKQWPIGRLLK [compound 45]	1 µg/mL	2 µg/mL	2 µg/mL	1 µg/mL	2 µg/mL	1 µg/mL	1 µg/mL	1 µg/mL	2 µg/mL
RLLRNWPIGRLLRRLLRRLLR [compound 20]	1 µg/mL	2 µg/mL	1 µg/mL	2 µg/mL	1 µg/mL	1 µg/mL	1 µg/mL	2 µg/mL	2 µg/mL
RVVRNWPIGRVVRRVVRRVVR [compound 18]	1 µg/mL	2 µg/mL	1 µg/mL	1 µg/mL	1 µg/mL	1 µg/mL	1 µg/mL	2 µg/mL	1 µg/mL
KLLKKLLKKLLKNWPIGKLLK [compound 55]	2 µg/mL	1 µg/mL	1 µg/mL	1 µg/mL	1 µg/mL	1 µg/mL	1 µg/mL	2 µg/mL	2 µg/mL
KLVRQWPIGKLVRKLVRKLVR [compound 16]	1 µg/mL	1 µg/mL	1 µg/mL	2 µg/mL	1 µg/mL	1 µg/mL	1 µg/mL	2 µg/mL	1 µg/mL
RVVRRVVRRVVRNWPIGRVVR [compound 52]	1 µg/mL	2 µg/mL	1 µg/mL	1 µg/mL	1 µg/mL	1 µg/mL	1 µg/mL	2 µg/mL	1 µg/mL
RVLRRVLRRVLRQWPIGRVLR [compound 39]	1 µg/mL	1 µg/mL	2 µg/mL	2 µg/mL	1 µg/mL	2 µg/mL	1 µg/mL	2 µg/mL	2 µg/mL
RLVKNWPIGRLVKRLVKRLVK [compound 32]	1 µg/mL	1 µg/mL	1 µg/mL	1 µg/mL	1 µg/mL	1 µg/mL	1 µg/mL	2 µg/mL	2 µg/mL
RVVRQWPIGRVVRRVVRRVVR [compound 1]	1 µg/mL	1 µg/mL	2 µg/mL	2 µg/mL	1 µg/mL	1 µg/mL	1 µg/mL	2 µg/mL	2 µg/mL
RLVRNWPIGRLVRRLVRRLVR [compound 24]	1 µg/mL	2 µg/mL	2 µg/mL	1 µg/mL	1 µg/mL	1 µg/mL	1 µg/mL	1 µg/mL	2 µg/mL
RLLRQWPIGRLLRRLLRRLLR [compound 3]	2 µg/mL	1 µg/mL	1 µg/mL	2 µg/mL	1 µg/mL	1 µg/mL	1 µg/mL	1 µg/mL	2 µg/mL
KVLKKVLKKVLKNWPIGKVLK [compound 57]	2 µg/mL	1 µg/mL	1 µg/mL	1 µg/mL	1 µg/mL	1 µg/mL	1 µg/mL	2 µg/mL	2 µg/mL
RVLKRVLKRVLKQWPIGRVLK [compound 47]	1 µg/mL	1 µg/mL	1 µg/mL	1 µg/mL	1 µg/mL	1 µg/mL	1 µg/mL	2 µg/mL	2 µg/mL
KLVRQFPVGKLVRKLVRKLVR [compound 17]	1 µg/mL	1 µg/mL	1 µg/mL	2 µg/mL	1 µg/mL	1 µg/mL	1 µg/mL	2 µg/mL	1 µg/mL
